Measured values reported in patent publication US5296485A, “Substituted N-phenylpiperidines and drugs therefrom” (BASF Aktiengesellschaft, priority 1991, dated 1994).
Read-outs that look alike come from different tables or passages of the source.

What was measured:
sigma binding sites = settings: J. Pharmacol. Exp. Ther. 238 (1986) 739; cited from earlier work
guinea-pig hearts = assay: ECG measurement of QT prolongation on isolated perfused (Langendorff) guinea-pig hearts; set-up: species or system guinea-pig (male Duncin-Hartley); settings: Cavia porcellus, 0.25 h; isolated guinea-pig heart, Krebs-Henseleit perfusate, 37° C., cumulative addition at 15 min intervals; linear regression on log dose; read-out: ED20% (dose at which the QT interval is increased by 20% from the initial level)
Description: In this connection, the cardiac cycle is divided into systole (contraction of the heart), also called QT interval, and diastole (relaxation of the heart with filling of the ventricles with blood). Repolarization inhibitors increase the QT interval but have a negligible effect on the atrioventricular conduction time (PQ interval) and the period of isometric contraction (QRS time, from start of systole to opening of the semilunar valves) (see Pschyrembel, 254th Edition, 1982).
The activity of the compounds according to the invention as repolarization inhibitors can be investigated in animal experiments by ECG measurements on, for example, guinea-pig hearts (see Basic Res. Cardiol. 82 (1987) 437; J. Pharmacol. Methods 21 (1989) 195). Comparison of the activities of various substances is based, for example, on the dose of an active substance at which the QT interval is increased by 20% from the initial level (ED20%). To do this, the logarithms of the doses of the substances are plotted against the experimentally found relative changes in the QT interval, and linear regression is used to determine the equation of a straight line from which the ED20% can then be calculated.
This method was used to determine the ED20% values of compounds according to the invention (see Table 1) . The comparison substance was D-sotalol [4'-(1-hydroxy-2-(isopropylamino)ethyl)methanesulfonanilide].
The experimental animals were male Duncin-Hartley guinea-pigs weighing from 300 to 350 g. 30 min after administration of 1250 I.U. of heparin/kg of body weight into the abdominal cavity, the animals were sacrificed by a blow to the back of the neck. The common carotid arteries were severed for exsanguination, then the thoracic cavity was opened and the heart was removed and connected to a perfusion apparatus. The Langendorff perfusion was carried out with oxygen-enriched Krebs-Henseleit solution (NaCl 6896 mg/l; KCl 350 mg/l; MgSO4 285 mg/l; CaCl2 370 mg/l; KH2 PO4 161 mg/l; NaHCO3 2090 mg/l; glucose 2000 mg/1) at 37° C. The perfusion volume per unit time was 4 to 6 ml/min, the total volume was 100 ml and the perfusion pressure was 60 to 70 mm Hg. Circulating perfusion was carried out after an equilibration time of 30 min.
Two silver electrodes attached to the surface of the heart in the upper region of the left coronary artery and on the rear of the heart at the level of the valve were used for the ECG recordings. The PQ and QT intervals and QRS times, and the heart rate, were measured.
The substances were added to the perfusate cumulatively at 15 min intervals.

sigma receptor [1] = assay: Sigma receptor binding ([^3 H]-ditolylguanidine); settings: rat cerebra membranes, pH 7.7, 37° C., read-out: Activity constants Ki for the [^3 H]-ditolylguanidine binding site
humans = settings: substances which bind to sigma receptors; J. Pharmacol. Exp. Ther. 197 (1976) 517; cited from earlier work
sigma receptor [2] = settings: cited from earlier work

For OC(CCCN1CCN(c2ncc(F)cn2)CC1)c1ccc(F)cc1 (stereo not drawn) [BMY 14802, α-(4-fluorophenyl)-4-(5-fluoro-2-pyrimidinyl)-1-piperazinebutanol], the “affinity for sigma binding sites” value (sigma binding sites) is listed as “high affinity”.
CC(C)NC[C@@H](O)c1ccc(NS(C)(=O)=O)cc1 [D-sotalol, 4'-(1-hydroxy-2-(isopropylamino)ethyl)methanesulfonanilide] showed an EC20 (guinea-pig hearts) of 16000 nM.
With CN(Cc1ccccc1)CC1CCN(c2ccc([N+](=O)[O-])cc2)CC1 [Example 2, 4-(N-Benzyl-N-methylaminomethyl)-1-(4-nitrophenyl)piperidine] the Ki (sigma receptor [1]) was 11 nM and the EC20 (guinea-pig hearts) was 420 nM.
Work on N#Cc1ccc(N2CCC(N3CCN(c4ccc([N+](=O)[O-])cc4)CC3)CC2)cc1 [Example 3, N-[1-(4-Cyanophenyl)-4-piperidinyl)-N'-(4-nitrophenyl)piperazine] yielded an EC20 (guinea-pig hearts) of 31 nM.
With O=[N+]([O-])c1ccc(N2CCC(N3CCC(c4ccccc4)CC3)CC2)cc1 [Example 8, 1-(4-Nitrophenyl)-4-(4-phenyl-1-piperidinyl)piperidine] the Ki (sigma receptor [1]) was 2.8 nM.
Work on CN(Cc1ccc(NS(C)(=O)=O)cc1)CC1CCN(c2ccc(NS(C)(=O)=O)cc2)CC1 [Example 10, 1-(4-Methanesulfonamidophenyl)-4-[N-(4-methanesulfonamidobenzyl)-N-methylaminomethyl]piperidine] yielded an EC20 (guinea-pig hearts) of 960 nM.
Molecule CN(Cc1ccccc1)C1CCCN(c2ccc([N+](=O)[O-])cc2)C1 (stereo not shown) [Example 11, 3-(N-benzyl-N-methylamino)-1-(4-nitrophenyl)piperidine] has a Ki (sigma receptor [1]) of 2 nM and an EC20 (guinea-pig hearts) of 1100 nM.
Molecule CN(CC(O)c1ccc(F)cc1)C1CCN(c2ccc([N+](=O)[O-])cc2)CC1 (stereo not shown) [Example 12, 4-[N-[2-(4-Fluorophenyl)-2-hydroxyethyl]-N-methylamino]-1-(4-nitrophenyl)piperidine] has an EC20 (guinea-pig hearts) of 210 nM.
In the case of C[C@H]1[C@H]2Cc3ccc(O)cc3[C@]1(C)CCN2CC1CC1 [cyclazocine], the “psychotomimetic effects in humans” value (humans) is listed as “psychotomimetic effects”.
In the case of O=C(CCCN1CCC(O)(c2ccc(Cl)cc2)CC1)c1ccc(F)cc1 [haloperidol], the “affinity for sigma binding sites” value (sigma binding sites) is listed as “high affinity” and the “affinity of the haloperidol-sensitive sigma receptors” value (sigma receptor [2]) is listed as “high affinity”.
In the case of CNC1(c2ccccc2Cl)CCCCC1=O (stereo not shown) [ketamine], the “psychotomimetic effects in humans” value (humans) is listed as “psychotomimetic effects”.
In the case of CC(C)=CCN1CCC2(C)c3cc(O)ccc3CC1C2C (stereo not shown) [pentazocine], the “psychotomimetic effects in humans” value (humans) is given as “psychotomimetic effects”.
In the case of c1ccc(C2(N3CCCCC3)CCCCC2)cc1 [phencyclidine], the “affinity of the haloperidol-sensitive sigma receptors” value (sigma receptor [2]; statement in words on the receptor used in the assay) is given as “low affinity”.
